According to patent US10076535B2, “Use of CPG oligonucleotides co-formulated with an antibiotic to accelerate wound healing” (THE UNITED STATES OF AMERICA, as represented by the …, priority 2012, dated 2018):
Entries after “also recorded” stand apart in the source; their conditions may differ.

Key:
[1] = system: BALB/c mice; test: Murine in vivo wound repair model (6 mm full-thickness excisional punch biopsy); settings: for effect on delay in wound healing caused by antibiotic: TLR ligand incorporated into / co-administered with antibiotic ointment; for effect on wound healing: simply applied over a pre-existing layer of antibiotic ointment or petrolatum
Description: The wound repair model of Devalaraja et al (J Invest Dermatol 2000; 115: 234-44) was used. Skin on the back was shaved and treated antibiotic ointment or petrolatum. In some studies, mice were injected s.c. at the base of the tail with 50 ug/g of vancomycin and imipenrm/cilastatin (Fernandez et al., Antimicrob Agents Chemother 2010; 54: 116-25, 2010). Fourteen days later, the mice were anesthetized by intraperitoneal injection of ketamine (80 μg/g) plus xylazine (10 ug/g). The skin on the back was gently cleaned with PBS. A 6 mm full-thickness excisional punch biopsy (including the Pannilulus carnosus) was taken using an ACU-PUNCH® (Fort Lauderdale, Fla.) from the right and left upper paravertebral region of each animal. Individual biopsy sites were coated with 100 μl of antibiotic ointment±50 μg CpG ODN and/or 5 μg IMQ, and then covered with nonadhesive sterile gauze (Sato et al., Wound Repair Regen 2010; 18: 586-93). Mice were wrapped with a form-fitting bandage to further protect the biopsy sites. Wound contraction was recorded every other day by digital photography and changes calculated using NIH Image J software (available on the internet, version 1.37). Each treatment was tested and results averaged in a minimum of five independent animals/group.
A well-established murine model of wound healing was used to evaluate the effect of antibiotic treatment on the rate of wound repair (Devalaraja et al., J Invest Dermatol 2000; 115: 234-44). Identical full-thickness excisional biopsies were taken from skin sites treated with either antibiotic ointment or petrolatum (different treatments were administered to contralateral sides of each animal). Sequential photographs provided a permanent record of the speed of wound closure. Untreated biopsy sites and sites treated with petrolatum (ointment control), healed at nearly identical rates.

[2] = system: b-FGF; test: Quantitative RT-PCR of mRNA at the wound site; format: in vivo, mice; settings: Bx sites on day 3
Description: (§1) FIG. 6 is a bar graph of the effect of antibiotic ointment on the levels of b-FGF and TGFβ mRNA. Mice were treated as described in FIG. 3. Total RNA was extracted from the Bx sites on day 3. Quantitative RT-PCR was performed to detect b-FGF and TGFβ. Results represent the mean±SE of at least 4 independent samples/treatment group. *p<0.05 vs untreated group.
(§2) Tissue from the biopsy site was excised, homogenized in Trizol, and extracted with chloroform. […] 1 μg of total RNA was reverse-transcribed using the QUANTITECT™ Reverse Transcription. Kit (QIAGEN®). Purified cDNA was used as the template for quantitative RT-PCR conducted using pre-designed primer/probe sets for interleucin (IL)-1β, CCL2, IFNa, IFNβ, basic fibroblast growth factor (FGF), transforming growth factor (TGF)β, and glyceraldehyde 3-phosphate dehydrogenase (GAPDH) (Applied Biosystems, Foster City, Calif.). Gene expression levels were analyzed using the STEPONEPLUS™ RT-PCR system (APPLIED BIOSYSTEMS®). All reagents and probes used in this system were purchased from APPLIED BIOSYSTEMS®.

[3] = system: TGFβ; test: Quantitative RT-PCR of mRNA at the wound site; format: in vivo, mice; settings: Bx sites on day 3
Description: as §1, §2

[4] = system: IFNβ; test: Quantitative RT-PCR of mRNA at the wound site; format: in vivo, mice; settings: day 3 after biopsy
Description: as §2

[5] = system: IFNa; test: Quantitative RT-PCR of mRNA at the wound site; format: in vivo, mice; settings: day 3 after biopsy
Description: as §2

[6] = system: CCL2 mRNA; test: Quantitative RT-PCR of mRNA at the wound site; format: in vivo, mice; settings: added to antibiotic ointment; day 3; p<0.05
Description: as §2

[7] = system: macaques; settings: topical administration; cited from earlier work
[8] = system: mice; settings: topical administration; cited from earlier work
[9] = system: IL-1β mRNA; test: Quantitative RT-PCR of mRNA at the wound site; format: in vivo, mice; settings: added to antibiotic ointment; day 3; p<0.05
Description: as §2

In the case of CC(C)Cn1cnc2c(N)nc3ccccc3c21 [IMQ, 1-isobutyl-1H-imidazo[4,5-c]quinolin-4-amine, reference compound], the “effect on delay in wound healing caused by antibiotic” value [1] was “completely corrected the delay in wound healing; also recorded: reversed”, the “effect on wound healing” value [1] was “no effect on wound healing” and the “expression of b-FGF at the wound site” value [2] was “increased”. The “expression of mRNA encoding TGFβ” value [3] was “up-regulated”, the “expression of IFNβ at the biopsy site” value [4] was “reversed” and the “expression of IFNa at the biopsy site” value [5] was “reversed”. The “effect on antibiotic-reduced CCL2 mRNA level” value [6] was “to a lesser extent IMQ corrected these defects”.

For “CpG ODN: Phosphorothioate K-type CpG ODN 1555, sequence GCTAGACGTTAGCGT, SEQ ID NO: 30 (DNA, all phosphorothioate, methylation of C not given here)”, the wound closure [7] is given as “significantly accelerated wound closure”, the wound closure [8] is given as “significantly accelerated wound closure” and the “effect on delay in wound healing caused by antibiotic” value [1] is given as “completely corrected the delay in wound healing; also recorded: reversed”. For the same compound, the “effect on wound healing” value [1] was “no effect on wound healing”, the “expression of b-FGF at the wound site” value [2] was “increased” and the “expression of mRNA encoding TGFβ” value [3] was “up-regulated”. The “expression of IFNβ at the biopsy site” value [4] was “reversed”, the “expression of IFNa at the biopsy site” value [5] was “reversed” and the “effect on antibiotic-reduced IL-1β mRNA level” value [9] was “corrected these defects”. For the same compound, the “effect on antibiotic-reduced CCL2 mRNA level” value [6] was “corrected these defects”.
